The source of these data is US11525008B2, “Methods and pharmaceutical compositions for the treatment of lung cancer” (INSERM (INSTITUT NATIONAL DE LA SANTÉ ET DE LA RECHERCHE …, priority 2016, dated 2022).

Common to all, as to format: cell-based
In one test the test system is A549 spheroids. Kind of test: collagen I gel invasion by spheroids, timelapse videomicroscopy, after FHIT silencing. To be noted: irbinitinib 15 nM, FHIT siRNA, up to 72h, vs FHIT siRNA+DMSO p=0.0001, FIG. 4. The procedure: FIG. 4: Collagen I gel invasion by A549 spheroids induced by FHIT silencing is HER2-dependent. […] A. Representative phase-contrast images of spheroids at T0 and T=72h. B. Time course analysis of mean diameter of spheroids.** p<0.01; *** p<0.001.

In another test the test system is HBE-4-E6/E7 cell line. Description: matrigel modified Boyden chamber cell invasion assay after FHIT silencing. To be noted: irbinitinib 10 nM; HBE-4-E6/E7 cells transfected with FHIT siRNA; FIG. 3A. An excerpt: (§1) FIG. 3: Cell invasion induced by FHIT silencing is HER2-dependent.
Another test relates to A549 cell line. Described as above. The conditions noted are these: irbinitinib 10 nM; A549 cells transfected with FHIT siRNA; FIG. 3B.
From the text: as §1

For `Cc1cc(Nc2ncnc3ccc(NC4=NC(C)(C)CO4)cc23)ccc1Oc1ccn2ncnc2c1` [irbinitinib, N4-(4-([1,2,4]Triazolo[1,5-a]pyridin-7-yloxy)-3-methylphenyl)-N6-(4,4-dimethyl-4,5-dihydrooxazol-2-yl)quinazoline-4,6-diamine], the “spheroid invasion (tumor cell dispersion into collagen I matrix, mean spheroid diameter) induced by FHIT silencing” value in the test with A549 spheroids is on record as “reduces spheroid invasion”. The “cell invasion induced by FHIT silencing” value in the test with HBE-4-E6/E7 cell line and in the test on A549 cell line was “reduces cell invasion” in each case.
